Experimental data reported in patent US20250145566A1, “PHENETHYLAMINE DERIVATIVES, COMPOSITIONS, AND METHODS OF USE” (Cybin IRL Limited, priority 2022, published 2025).
Entries after “also recorded” stand apart in the source; their conditions may differ.

How the values were obtained:
[1] = test system: Rat Liver Microsomes; test: Rat liver microsomes (RLM) in vitro metabolism; assay type: in vitro ADME; conditions: result in words
Procedure: (§1) Rat Liver Microsomes (RLM). Male Sprague-Dawley rat liver microsomes were purchased from XenoTech. The reaction mixture, minus NADPH, was prepared as described in Table 10. The test compound was added into the reaction mixture at a final concentration of 1 μM. The control compound, testosterone, was run simultaneously with the test compound in a separate reaction. The reaction mixture (without cofactor) was equilibrated in a shaking water bath at 37° C. for 5 minutes. The reaction was initiated by the addition of the cofactor, and the mixture was incubated in a shaking water bath at 37° C. Aliquots (150 μL) were withdrawn at 0, 5, 10, 20, 30, 60, and for some assays at 120 minutes. Test compound and testosterone samples were immediately combined with 150 μL of ice-cold acetonitrile (ACN) containing 0.1% formic acid and internal standard to terminate the reaction. The samples were then mixed and centrifuged to precipitate proteins. All samples were assayed by LC-MS/MS using electrospray ionization. The peak area response ratio (PARR) of analyte to internal standard at each time point was compared to the PARR at time 0 to determine the percent remaining at each time point. Half-lives were calculated using GraphPad software, fitting to a single-phase exponential decay equation.
(§2) In a different series of reactions using RLM, a 10 mM stock solution of the test compound was prepared in DMSO. From this stock solution, an intermediate stock solution of 1 mM was prepared by diluting the compound in DMSO and from this intermediate stock solution, a working solution of 0.30 mM was prepared by diluting the compound in ACN:Water (50:50) as a cocktail of two compounds (i.e., 30 μL the non-deuterated and the deuterated compound in 40 μL diluent in 100 μL total volume). Following this, a master mix of rat liver microsomes (final concentration 0.5 mg/ml, Xenotech Cat #R1000; Lot #1610290) and 0.1 M potassium phosphate buffer was prepared and pre-incubated for 5 min at 37° C. The test compound mixture was then added to achieve a final test article concentration of 1 μM (for each analog if co-dosed; 0.2% DMSO); verapamil was used as a positive control. Subsequently, 10 mM NADPH prepared in 0.1 M potassium phosphate buffer was added (final concentration 1 mM) to initiate the reaction and samples were incubated at 37° C. for the desired time points (0, 5, 15, 30, 45, 60 min). At each time point, 40 μL of the samples were withdrawn and reactions were stopped using 200 μL chilled ACN containing 0.1% formic acid and internal standard carbamazepine (10 ng/mL). The samples were centrifuged, and the supernatant was analyzed by LC-MS/MS. The percent compound remaining at each time point was calculated with respect to that of the 0 min sample. The data were then analyzed to calculate half-life. Blank samples were prepared using DMSO (without the test compound).

[2] = Rat liver microsomes (RLM) in vitro metabolism; assay type: in vitro ADME; conditions: Sprague-Dawley, pH 7.4; rat liver microsomes, test compound 1 μM; * = apparent NADPH independent reaction; read-out: RLM t1/2
Procedure: as §1, §2

[3] = target: T1, 5-HT2C (h) (Homo sapiens, UniProt P28335); test: 5-HT2C (h) agonist radioligand [125I](±)DOI binding; conditions: at 10 μM
T1 construct: expressed in transfected cells; host or cells: HEK-293 cells
T1 sequence (P28335 33-458): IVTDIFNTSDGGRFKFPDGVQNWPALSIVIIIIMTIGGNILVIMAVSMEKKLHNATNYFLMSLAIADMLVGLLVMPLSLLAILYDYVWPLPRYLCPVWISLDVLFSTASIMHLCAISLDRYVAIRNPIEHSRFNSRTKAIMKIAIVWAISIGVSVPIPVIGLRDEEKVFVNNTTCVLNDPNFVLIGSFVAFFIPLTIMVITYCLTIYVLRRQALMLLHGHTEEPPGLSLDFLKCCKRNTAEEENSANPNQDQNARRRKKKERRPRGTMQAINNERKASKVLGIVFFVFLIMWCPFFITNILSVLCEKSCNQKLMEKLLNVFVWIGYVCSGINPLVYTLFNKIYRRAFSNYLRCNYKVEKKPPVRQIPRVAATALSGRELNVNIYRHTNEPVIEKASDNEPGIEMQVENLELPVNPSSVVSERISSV
Procedure: (§3) Samples were then analyzed as described above.

[4] = target: T1, 5-HT2C (h); test: 5-HT2C (h) agonist effect, IP1 HTRF functional assay; assay type: cell-based; conditions: for agonist efficacy at 5-HT2C, in words: EMAX relative to 5-HT
[5] = target: T2, norepinephrine transporter (h) (Homo sapiens, UniProt P23975); test: norepinephrine transporter (h) binding, [3H]nisoxetine; conditions: at 10 μM; table calls these values “No Binding”
T2 construct: expressed in transfected cells; host or cells: CHO cells

[6] = target: T3, 5-HT2A (h) (Homo sapiens, UniProt P28223); test: 5-HT2A (h) agonist radioligand [125I](±)DOI binding; conditions: at 10 μM
T3 construct: expressed in transfected cells; host or cells: HEK-293 cells

[7] = target: T4, 5-HT transporter (h) (Homo sapiens, UniProt P31645); test: 5-HT transporter (h) binding, [3H]imipramine; conditions: for selectivity for binding SERT over DAT and NET, in words: affinity screen at 10 μM
T4 construct: expressed in transfected cells; host or cells: CHO cells

[8] = target: T5, dopamine transporter (h) (Homo sapiens, UniProt Q01959); test: dopamine transporter (h) binding, [3H]BTCP; conditions: at 10 μM; table calls these values “No Binding”
T5 construct: expressed in transfected cells; host or cells: CHO cells

[9] = target: T6, 5-HT2B (h) (Homo sapiens, UniProt P41595); test: 5-HT2B (h) agonist radioligand [125I](±)DOI binding; conditions: at 10 μM
T6 construct: expressed in transfected cells; host or cells: CHO cells
Procedure: as §3

T4 sequence (P31645 whole entry): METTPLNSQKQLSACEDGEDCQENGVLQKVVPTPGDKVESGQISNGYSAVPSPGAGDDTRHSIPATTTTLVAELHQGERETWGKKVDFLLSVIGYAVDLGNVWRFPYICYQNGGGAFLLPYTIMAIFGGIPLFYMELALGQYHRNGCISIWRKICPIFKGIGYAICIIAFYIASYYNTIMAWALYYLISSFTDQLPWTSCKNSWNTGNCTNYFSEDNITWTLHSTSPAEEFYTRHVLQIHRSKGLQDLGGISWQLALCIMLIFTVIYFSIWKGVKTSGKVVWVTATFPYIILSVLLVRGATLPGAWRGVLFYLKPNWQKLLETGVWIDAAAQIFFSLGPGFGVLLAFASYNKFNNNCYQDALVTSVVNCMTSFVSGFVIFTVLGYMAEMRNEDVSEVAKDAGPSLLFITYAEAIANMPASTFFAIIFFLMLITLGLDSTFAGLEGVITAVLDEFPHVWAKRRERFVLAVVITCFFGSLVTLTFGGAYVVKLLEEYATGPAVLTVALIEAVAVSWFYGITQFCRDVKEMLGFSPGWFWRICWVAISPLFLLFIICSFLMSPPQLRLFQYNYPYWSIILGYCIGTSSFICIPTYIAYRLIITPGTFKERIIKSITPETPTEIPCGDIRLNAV
T2 sequence (P23975 whole entry): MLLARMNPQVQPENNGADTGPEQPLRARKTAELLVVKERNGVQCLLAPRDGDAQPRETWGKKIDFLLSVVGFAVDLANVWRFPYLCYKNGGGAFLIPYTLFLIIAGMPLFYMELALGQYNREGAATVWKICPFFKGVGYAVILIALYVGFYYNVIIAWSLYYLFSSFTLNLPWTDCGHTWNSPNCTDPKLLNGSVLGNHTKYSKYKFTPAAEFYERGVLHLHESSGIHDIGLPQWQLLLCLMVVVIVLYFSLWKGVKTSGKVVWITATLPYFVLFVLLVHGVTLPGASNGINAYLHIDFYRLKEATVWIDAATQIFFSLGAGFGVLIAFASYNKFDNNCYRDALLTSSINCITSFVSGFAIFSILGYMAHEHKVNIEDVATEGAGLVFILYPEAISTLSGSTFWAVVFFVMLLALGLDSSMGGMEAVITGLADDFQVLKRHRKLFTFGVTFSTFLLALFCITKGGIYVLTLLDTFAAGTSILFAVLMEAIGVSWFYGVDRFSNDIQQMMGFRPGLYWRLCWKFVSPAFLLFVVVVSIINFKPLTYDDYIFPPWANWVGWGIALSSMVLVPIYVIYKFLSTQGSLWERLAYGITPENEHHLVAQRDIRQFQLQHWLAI
T6 sequence (P41595 whole entry): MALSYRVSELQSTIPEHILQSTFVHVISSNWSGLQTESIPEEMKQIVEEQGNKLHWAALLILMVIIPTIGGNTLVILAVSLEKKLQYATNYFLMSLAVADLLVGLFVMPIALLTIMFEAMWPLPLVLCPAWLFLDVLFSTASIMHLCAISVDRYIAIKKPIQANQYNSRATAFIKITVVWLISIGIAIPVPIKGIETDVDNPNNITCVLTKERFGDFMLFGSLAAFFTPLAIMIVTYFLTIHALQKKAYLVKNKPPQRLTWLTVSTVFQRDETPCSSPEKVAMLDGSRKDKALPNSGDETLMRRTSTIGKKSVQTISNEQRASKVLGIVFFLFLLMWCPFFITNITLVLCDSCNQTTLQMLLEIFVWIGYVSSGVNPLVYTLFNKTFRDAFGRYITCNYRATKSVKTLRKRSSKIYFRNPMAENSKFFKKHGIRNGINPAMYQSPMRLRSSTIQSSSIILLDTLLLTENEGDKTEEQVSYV
T5 sequence (Q01959 whole entry): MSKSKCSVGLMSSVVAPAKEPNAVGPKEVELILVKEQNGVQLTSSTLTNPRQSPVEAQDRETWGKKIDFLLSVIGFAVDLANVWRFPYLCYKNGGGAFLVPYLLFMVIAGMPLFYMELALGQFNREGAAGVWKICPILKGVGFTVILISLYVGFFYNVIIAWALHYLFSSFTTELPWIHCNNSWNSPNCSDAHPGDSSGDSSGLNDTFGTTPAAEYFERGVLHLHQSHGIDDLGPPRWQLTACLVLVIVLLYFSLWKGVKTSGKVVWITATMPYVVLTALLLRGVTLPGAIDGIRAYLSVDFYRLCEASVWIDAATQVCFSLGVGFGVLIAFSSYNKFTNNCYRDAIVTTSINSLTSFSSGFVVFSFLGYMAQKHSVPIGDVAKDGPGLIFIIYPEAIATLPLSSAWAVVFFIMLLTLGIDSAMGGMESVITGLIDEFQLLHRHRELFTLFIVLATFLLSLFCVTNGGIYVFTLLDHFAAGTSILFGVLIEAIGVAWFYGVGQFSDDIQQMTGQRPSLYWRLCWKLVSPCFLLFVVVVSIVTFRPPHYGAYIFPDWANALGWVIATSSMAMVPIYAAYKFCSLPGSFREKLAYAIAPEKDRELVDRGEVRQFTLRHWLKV
T3 sequence (P28223 whole entry): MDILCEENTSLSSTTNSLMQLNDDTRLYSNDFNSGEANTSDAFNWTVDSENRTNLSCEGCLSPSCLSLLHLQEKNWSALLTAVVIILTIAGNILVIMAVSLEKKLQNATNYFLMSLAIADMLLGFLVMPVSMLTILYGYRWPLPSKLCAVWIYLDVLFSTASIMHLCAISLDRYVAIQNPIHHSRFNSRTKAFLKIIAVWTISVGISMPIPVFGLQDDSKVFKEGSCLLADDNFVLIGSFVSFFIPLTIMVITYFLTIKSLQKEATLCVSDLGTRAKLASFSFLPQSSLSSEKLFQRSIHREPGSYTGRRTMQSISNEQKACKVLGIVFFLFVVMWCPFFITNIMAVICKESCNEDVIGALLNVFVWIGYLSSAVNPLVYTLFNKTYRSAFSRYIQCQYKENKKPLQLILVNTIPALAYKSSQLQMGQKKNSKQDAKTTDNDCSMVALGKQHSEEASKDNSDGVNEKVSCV

| SMILES | disappearance in RLM, NADPH dependence [1] | half-life at 1 µM [2] [min] | Binding 5-HT2C (agonist radioligand), % competition [3] [% competition] | EC50 [4] [nM] | Emax at 3 µM ([4]; at 3 μM, relative to 5-HT, read-out: Function 5-HT2C EMAX) [%] | Function 5-HT2C (Gq-IP1, efficacy relative to 5-HT), agonist type ([4]; tested at 1, 3, 10, 100 μM) | agonist efficacy at 5-HT2C, in words ([4]; tested at 1, 3, 10, 100 μM) | Binding NET (antagonist radioligand), % competition [5] [% competition] | Binding 5-HT2A (agonist radioligand), % competition [6] [% competition] | selectivity for binding SERT over DAT and NET, in words [7] | Binding SERT (antagonist radioligand), % competition ([7]; at 10 μM) [% competition] | Binding DAT (antagonist radioligand), % competition [8] [% competition] | Binding 5-HT2B (agonist radioligand), % competition [9] [% competition] |
| --- | --- | --- | --- | --- | --- | --- | --- | --- | --- | --- | --- | --- | --- |
| NCCc1ccc2c(c1)OCS2 [II-14, 2-(benzo[d][1,3]oxathiol-6-yl)ethan-1-amine] | NADPH-independent | < 5 | 94.4 | < 750 | 107 | Full agonist - | nearly full or full agonist; also recorded: full agonists | 40.5 | 93.9 | substantial selectivity for binding SERT over DAT and NET | 54.7 | 26 | 100.3 |
| CC(N)Cc1ccc2c(c1)OCS2 (centres unmarked) [II-16, 1-(benzo[d][1,3]oxathiol-6-yl)propan-2-amine] | NADPH-independent | 11.7 | – | – | – | – | nearly full or full agonist; also recorded: full agonists | – | – | substantial selectivity for binding SERT over DAT and NET | – | – | – |
